Assays:
[1] = test system: salQ; assay: qPCR relative gene expression in K12 grown on CABCa agar; format: cell-based, S. salivarius K12
Procedure: (§1) Method: CABCa agar plates were prepared either with or without 2.5% w/w raffinose, 0.5% w/w galactose, combined 2.5% w/w raffinose and 0.5% w/w galactose, 0.5% w/w glucose or 2.5% w/w glucose by the addition of 0.5% (w/v) calcium carbonate to solid CAB agar in bottles and then melted by autoclaving at 110° C. for 10 mins. Once cooled, filter sterilised solutions of the saccharides or distilled water were added and mixed and then 20 ml pipetted into petri dishes.
(§2) A S. salivarius K12 raw ingredient suspension was prepared in PBS containing approx. 1×10^8cfu/ml. […] of this suspension was spread evenly onto control and test agar plates. Plates were incubated at 37° C. with 5% CO2 for approx, 19 hrs.
(§3) Bacterial growth from each plate was collected using a sterile cotton swab and resuspended into 1 ml PBS in a screw capped tube. The bacterial cells were then pelleted by centrifugation at 13,000 rpm for 1 minute at 4° C. The supernatant was removed, and the cell pellet was resuspended in 1 ml of TRIzol reagent. The bacterial cell suspension was transferred into a 2 ml screw-capped tube containing 0.1 mm Zirconia/silicon beads. These tubes were then vortexed for 5 minutes at the highest speed to bead beat the bacterial cells to lyse them. The tubes were placed on ice for 1 minute and then re-bead beated again on the vortex for 5 minutes. The tubes were then frozen at −20° C.
(§4) The cDNA samples from K12 raw ingredient grown on the CABCa control plates and CABCa supplemented with the various saccharides were then analysed by qPCR for the levels of gene expression of the following genes: salA, salB, salQ and ureC.
(§5) 10 μl qPCR reactions were prepared containing 2 μl of cDNA, 5 μl SYBR green master mix, 0.5 μl forward primer, 0.5 μl reverse primer and nuclease free water up to 10 μl. The dilution of cDNA in each qPCR was optimised with each primer set.
(§6) qPCR method consisted of the following cycles: Hold Stage: 2 mins at 50° C. followed by 10 mins at 95° C.; PCR Stage: 15 secs at 95° C. followed by 1 min at 60° C.; Melt Curve Stage: 15 secs at 95° C. followed by 1 min at 60° C. followed by 15 secs at 95° C.
(§7) To analyse the relative expression levels the 2^−ΔΔCt method was used to determine the relative fold gene expression level comparing the different sugars to a CABCa plate control. The reference gene used for this analysis was gyrA.

[2] = test system: ureC; assay: as above; format: cell-based, S. salivarius K12
Procedure: as §1, §2, §3, §4, §5, §6, §7

[3] = test system: representative microorganisms from skin, dental, oral, ENTR diseases; assay: Dose response assay with dairy free K12 or M18; format: cell-based; settings: 2.5% w/w raffinose vs equal weight percentage of saccharides; pH adjusted
Procedure: CABCa agar plates containing various concentrations of saccharide were prepared according to the methods described in Method 1. Producer strains were transferred from stock agar plates into 900 μL THB using a fresh cotton swab. A plastic spread plater was cut to approximately 1.2 cm width and then dipped into ethanol and left to air dry to ensure sterility. A 100 μL sample of the producer strain suspension was then dispensed onto the agar surface in a straight line running diametrically across the agar surface in (approximately) 20 μL spots. The spots were spaced approximately 1.5 cm apart from each other. The plastic spreader was then used to evenly distribute the spots across the agar surface in a 1.5 cm wide strip. This step was taken to ensure an even producer streak was inoculated onto the agar surface and provided an approximate measure of the initial inoculum concentration. Separate plastic spreaders were used for samples containing different producer strains. The samples were left to soak into the agar surface until there was no visible liquid remaining on the agar surface (approximately 20 minutes). Following producer streak preparations, the deferred antagonism assay protocol was followed as per Method 2. Results were recorded by measuring the size of the zone of inhibition (ZOI) in mm. […]

[4] = test system: bacterial indicator strains; assay: Split plate inhibitory activity of K12 in infant formula or whole milk powder (overall); format: cell-based; settings: galactose 0.5% w/w or raffinose 2.5% w/w added
Procedure: The following method was used to measure the inhibitory effect of S. salivarius K12 in the context of the powder formulations. Exactly 40 mL of 50° C. molten CAB agar containing 0.5% calcium carbonate (CABCa) was poured in agar plates (120×120 mm). Once the agar was set upon cooling, it was split in the middle and half of the agar gel was removed. The other half was left on the plate as Blank agar marked as side “A”. Approximately, 0.8 g of each combination (DDJ powder with (1) galactose, (2) raffinose or (3) combination of raffinose and galactose) was mixed with 1 mL of sterile distilled water and vortexed to produce a homogeneous suspension. 100 μl of the suspension was reserved for spreading on the surface of agar (producer side B). The remaining suspension was then mixed with 20 mL of molten CABCa agar and the mixture was poured into the empty half of the agar plate to form producer side “B”. The 100 μL of the reserved suspension was spread over the surface on side B and the plates were incubated for 18 h, 37° C., 5% CO2 in air. […] The pH of the producer side was measured and adjusted to 6.5-7.5 by soaking into the agar a solution of 0.5 M sodium carbonate pH 11. […] The zone of inhibition of each indicator strain was measured (in mm) using a ruler. Results were also read using a macroscope to establish presence of small colonies or complete inhibition zones. […]

Structure (SMILES)	salQ upregulated relative to a no sugar control ([1]; 2.5% w/w sugar in CABCa agar) [fold]	upregulation in urease (ureC) expression ([2]; 2.5% w/w sugar in CABCa agar) [fold]	inhibitory action of dairy free K12 or M18 [3]	inhibitory activity of K12 in infant formula compared to the control [4]	salQ upregulated relative to a no sugar control ([1]; 0.5% w/w sugar in CABCa agar) [fold]	upregulation in urease (ureC) expression ([2]; 0.5% w/w sugar in CABCa agar) [fold]
OC[C@H]1O[C@H](OC[C@H]2O[C@H](O[C@]3(CO)O[C@H](CO)[C@@H](O)[C@@H]3O)[C@H](O)[C@@H](O)[C@@H]2O)[C@H](O)[C@@H](O)[C@H]1O [Raffinose, D-(+) Raffinose pentahydrate]	93	234	enhanced inhibitory action	reduction in inhibitory activity		
O=C[C@H](O)[C@@H](O)[C@@H](O)[C@H](O)CO [Galactose, D-galactose]			enhanced inhibitory activity	reduction in inhibitory activity	205	224

From US20240390434A1, “PROBIOTIC ENHANCERS AND USES THEREOF” (Blis Technologies Limited, priority 2021, published 2024)
